Results: US20150105252A1, “SUBSTITUTED PYRAZOLES AS HERBICIDES” (E I DU PONT DE NEMOURS AND COMPANY, priority 2013, published 2015)

Experiments:
Conditions in all cases: scale 0 to 100
pigweed = assay: Test D postemergence; format: in vivo, Amaranthus retroflexus
Excerpt: (§1) Seeds of plant species selected from bluegrass (annual bluegrass, Poa annua), blackgrass (Alopecurus myosuroides), canarygrass (littleseed canarygrass, Phalaris minor), chickweed (common chickweed, Stellaria media), galium (catchweed bedstraw, Galium aparine), bromegrass, downy (downy bromegrass, Bromus tectorum), field poppy (Papaver rhoeas), field violet (Viola arvensis), foxtail, green (green foxtail, Setaria viridis), deadnettle (henbit deadnettle, Lamium amplexicaule), ryegrass, Italian (Italian ryegrass, Lolium multiflorum), kochia (Kochia scoparia), lambsquarters (Chenopodium album), oilseed rape (Brassica napus), pigweed (redroot pigweed, Amaranthus retroflexus), chamomile (scentless chamomile, Matricaria inodora), speedwell (bird's-eye speedwell, Veronica persica), barley, spring (spring barley, Hordeum vulgare), wheat, spring (spring wheat, Triticum aestivum), buckwheat, wild (wild buckwheat, Polygonum convolvulus), mustard, wild (wild mustard, Sinapis arvensis), oat, wild (wild oat, Avena fatua), radish, wild (wild radish, Raphanus raphanistrum), windgrass (Apera spica-venti), Russian thistle (Salsola kali), barley, winter (winter barley, Hordeum vulgare), and wheat, winter (winter wheat, Triticum aestivum) were planted into a silt loam soil and treated preemergence with test chemicals formulated in a non-phytotoxic solvent mixture which included a surfactant.
(§2) At the same time, these species were planted in pots containing Redi-Earth® planting medium (Scotts Company, 14111 Scottslawn Road, Marysville, Ohio 43041) comprising spaghnum peat moss, vermiculite, wetting agent and starter nutrients and treated with postemergence applications of the test chemicals formulated in the same manner. Plants ranged in height from 2 to 18 cm (1- to 4-leaf stage). Treated plants and controls were maintained in a controlled growth environment for 14 to 21 days after which time all species were compared to controls and visually evaluated. Plant response ratings, summarized in Table D, are based on a scale of 0 to 100 where 0 is no effect and 100 is complete control. A dash (-) response means no test result.

chickweed = assay: Test D preemergence; format: in vivo, Stellaria media
Excerpt: as §1, §2

field violet = assay: Test D preemergence; format: in vivo, Viola arvensis
Excerpt: as §1, §2

mustard, wild = assay: Test D postemergence; format: in vivo, Sinapis arvensis
Excerpt: as §1, §2

galium = assay: Test D preemergence; format: in vivo, Galium aparine
Excerpt: as §1, §2

foxtail, green = assay: Test D preemergence; format: in vivo, Setaria viridis
Excerpt: as §1, §2

canarygrass = assay: Test D postemergence; format: in vivo, Phalaris minor
Excerpt: as §1, §2

Structure (SMILES) | Pigweed plant response rating (pigweed; Postemergence, 31 g ai/ha) | Pigweed plant response rating (pigweed; Postemergence, 125 g ai/ha) | Pigweed plant response rating (pigweed; Postemergence, 250 g ai/ha) | Pigweed plant response rating (pigweed; postemergence, 62 g ai/ha) | Plant response rating, Chickweed (chickweed; 31 g ai/ha) | Plant response rating, Chickweed (chickweed; 62 g ai/ha) | Plant response rating, Chickweed (chickweed; 125 g ai/ha) | Plant response rating, Chickweed (chickweed; 250 g ai/ha) | Plant response rating, Field Violet (field violet; 62 g ai/ha) | Plant response rating, Field Violet (field violet; 125 g ai/ha) | Plant response rating, Field Violet (field violet; 250 g ai/ha) | Mustard, Wild plant response rating (mustard, wild; Postemergence, 31 g ai/ha) | Mustard, Wild plant response rating (mustard, wild; Postemergence, 125 g ai/ha) | Mustard, Wild plant response rating (mustard, wild; Postemergence, 250 g ai/ha) | Mustard, Wild plant response rating (mustard, wild; postemergence, 62 g ai/ha) | Plant response rating, Galium (galium; 62 g ai/ha) | Plant response rating, Galium (galium; 125 g ai/ha) | Plant response rating, Galium (galium; 250 g ai/ha) | Plant response rating, Foxtail, Green (foxtail, green; 62 g ai/ha) | Plant response rating, Foxtail, Green (foxtail, green; 125 g ai/ha) | also measured
CCc1cc(C(=O)NC(C)C)nn1Cc1ccnc(C(F)(F)F)c1 [Compound 103] | 70 | 65 | 70 | 60 | 95 | 100 | 100 | 100 | 100 | 100 | 100 | 25 | 60 | 60 | 45 | 100 | 100 | 100 | 100 | 100 | Plant response rating, Field Violet (field violet; 31 g ai/ha): 95; Plant response rating, Galium (galium; 31 g ai/ha): 50; Plant response rating, Foxtail, Green (foxtail, green; 31 g ai/ha): 20; Plant response rating, Foxtail, Green (foxtail, green; 250 g ai/ha): 100; Canarygrass plant response rating (canarygrass; Postemergence, 31 g ai/ha): 5; Canarygrass plant response rating (canarygrass; Postemergence, 125 g ai/ha): 10; Canarygrass plant response rating (canarygrass; Postemergence, 250 g ai/ha): 10; Canarygrass plant response rating (canarygrass; postemergence, 62 g ai/ha): 5
CCCc1cc(C(=O)NCC(F)(F)F)nn1Cc1cc(C(F)(F)F)nn1C [Compound 138] | 90 | 90 | 90 | 90 | 100 | 100 | 100 | 100 | 100 | 100 | 100 | 100 | 100 | 100 | 100 | 100 | 100 | 100 | 100 | 100 | Plant response rating, Foxtail, Green (foxtail, green; 250 g ai/ha): 100; Canarygrass plant response rating (canarygrass; Postemergence, 31 g ai/ha): 5; Canarygrass plant response rating (canarygrass; Postemergence, 125 g ai/ha): 25; Canarygrass plant response rating (canarygrass; Postemergence, 250 g ai/ha): 70; Canarygrass plant response rating (canarygrass; postemergence, 62 g ai/ha): 5
